Data as given in patent publication US5968946A, “Heterocyclic derivatives useful in treating central nervous system disorders” (Ortho-McNeil Pharmaceutical, Inc., priority 1998, dated 1999).
Like-named read-outs stand apart in the source and are kept apart here.

Key:
[1] = system: anxiety in the adult male rat; assay: Suppression of anxiety in the adult male rat (Vogel anticonflict test); assay type: in vivo; conditions: read-out: Anticonflict MED
Description: The anxiolytic activity of selected compounds of the invention was assessed by determining their ability to encourage behavior that had been suppressed by punishment (Vogel, J. R. et al. Psychopharmacology 1971, 21, 1). Male rats were deprived of water for 48 hours and were deprived of food for 24 hours prior to testing. After the first 24 hours of water deprivation, they were placed in the conflict chamber for a training period; wherein, they were allowed 200 unpunished licks from a bottle containing tap water. The experiment was run the next day. At the expected time of peak activity, the animals were placed in the chamber and allowed access to tap water. […] Their first lick initiates a 3-min test session. Subsequently,every 20th lick was punished by a 0.2-s shock delivered via the stainless-steel drinking-tube. Vehicle-treated control animals generally were willing to accept a median number of 3 to 8 shocks per test session. […] The Wilcoxon rank-sum test (Mann-WhitneyU-test) was used to test for an increase (p<0.05, 1-tailed) in the median number of shocks in drug-treated groups, compared to a concurrently run vehicle-treated group. The biological assay is considered to be valid if the effects of a known anxiolytic (positive control) are detected, within the same experiment. A compound was considered active if there is a significant difference in the median number of shocks tolerated between the drug-treated group and the control group. The MED was defined as the minimum dose of the drug-treatment as analyzed using the Wilcoxon rank-sum test (SAS; Statistical Analysis System, version 5.16). If the MED value is greater than 10, an active dose of the compound being tested had not been determined.

[2] = system: metrazol-induced convulsions; assay: Suppression of metrazol-induced convulsions (antimetrazol); assay type: in vivo, mouse (male CD1); conditions: Mus musculus, 0.5 h; PO; clonic convulsions, 30 min observation
motor coordination = assay: Horizontal screen test for motor coordination; assay type: in vivo, mouse (male CD1); conditions: Mus musculus, CD1 mice
[3] = biological target: benzodiazepine site of the GABA-A receptor; assay: Benzodiazepine receptor binding assay (inhibition of 3H-flunitrazepam binding); conditions: read-out: 3H-Flunitrazepam IC50; ca. 3 nM 3H-flunitrazepam, 10-20 min at 25° C.
[4] = system: metrazol-induced convulsions; assay: Suppression of metrazol-induced convulsions (antimetrazol); assay type: in vivo, mouse (male CD1); conditions: Mus musculus, 0.5 h; IP; clonic convulsions, 30 min observation
Description: Selected compounds of the invention were tested for their ability to reduce metrazol-induced convulsions in mice (Swinyard, E. A. J. Am. Pharm Assoc. 1949, 38, 201). Male CD1 mice, were fasted at least 16 hours, were divided into equal groups and test compounds or vehicle were administered parenterally. Water was not withheld except during the period of observations. At the time of suspected peak activity, anti-pentylenetetrazol (anti-metrazol) activity was evaluated by the subcutaneous administration of the CD90 dose of metrazol (the dose of metrazol was determined from the dose-response curve producing clonic convulsions in 90% of animals that received the corresponding vehicle for this experiment). Metrazol was dissolved in 0.9% sodium chloride solution, and its dose volume was 10 ml/kg. Animals were housed individually for observation of clonic convulsions, tonic convulsions and death for a period of 30 min. Test compounds that blocked the clonic seizure component of the convulsion in at least 50% of the animals were considered active. The biological assay was considered to be valid if the effects of a known anticonvulsant (positive control) were detected, within the same experiment. Activity was reported as percent reduction of clonic convulsions from the vehicle group. The ED50 values of active compounds were calculated by the method of probits (Finney, D. J. 1971. Probit Analysis. London: Cambridge University Press) and are listed in Tables 1.

SMILES	minimal effective dose ([1]; IP) [mg/kg]	minimal effective dose ([1]; PO) [mg/kg]	ED50 [2] [mg/kg]	ED50 (motor coordination; IP) [mg/kg]	IC50 [3] [nM]	ED50 [4] [mg/kg]	ED50 (motor coordination; PO) [mg/kg]
O=C1CCn2c(nc3cccnc32)C1C(=O)Nc1ccccc1 (stereo not shown) [CP #2, 8,9-Dihydro-7-keto-N-phenyldipyrido [1,2-a:3',2'-d] imidazole-6-carboxamide]	> 10	> 30	> 30	> 10	> 4350	> 10	
O=C1CCN2C(=C1C(=O)Nc1c(F)cc(F)cc1F)Nc1cccnc12 [CP #4]	> 10	> 30	> 30	~10	1960	~10	
O=C1CCn2c(nc3ncccc32)C1C(=O)Nc1ccccc1F (stereo not shown) [CP #5, 6,7-dihydro-8-keto-N-(2-fluorophenyl)dipyrido[1,2-a:2',3'-d]imidazole-9-carboxamide]	10	> 30	10	3	3.5	1	
O=C1CCn2c(nc3ncccc32)C1C(=O)Nc1ccccc1 (stereo not shown) [CP #6, 6,7-dihydro-8-keto-N-phenyldipyrido[1,2-a:2',3'-d]imidazole-9-carboxamide]	> 10	30	< 30	3	8.3	3	
O=C1CCn2c(nc3ncccc32)C1C(=O)Nc1ccncc1 (stereo not shown) [CP #7, 6,7-dihydro-8-keto-N-(4-pyridyl)dipyrido[1,2-a:2',3'-d]imidazole-9-carboxamide]	30	10	> 10		619	> 30	> 10
O=C1CCn2c(nc3ncccc32)C1C(=O)Nc1c(F)cc(F)cc1F (stereo not shown) [CP #8, 6,7-dihydro-8-keto-N-(2,4,6-trifluorophenyl)dipyrido[1,2-a:2',3'-d]imidazole-9-carboxamide]	> 10	> 30	> 30	> 30	220	10	
O=C1CCn2c(nc3ncccc32)C1C(=O)Nc1c(F)cccc1F (stereo not shown) [CP #9, 6,7-dihydro-8-keto-N-(2,6-difluorophenyl)dipyrido[1,2-a:2',3'-d]imidazole-9-carboxamide]	> 10	> 10	~30	~10	30.1	~30	
O=C1CCN2C(=C1C(=O)Nc1ccccc1F)Nc1cccnc12 [compound 1]	> 10	> 30	> 30	10		10	
O=C1CCN2C(=C1C(=O)Nc1ccncc1)Nc1cccnc12 [compound 3]	> 10	> 30	> 30	> 10		> 10	
O=C1CCN2C(=C1C(=O)Nc1c(F)cccc1F)Nc1cnccc12 [compound 10]	> 10	~3	> 30		17.7	> 10	
COCCN1C2=C(C(=O)Nc3ccccc3F)C(=O)CCN2c2ncccc21 [compound 11]		> 10			285		
CN1C2=C(C(=O)Nc3ccccc3F)C(=O)CCN2c2ncccc21 [compound 12]		> 10			> 312		
